Measured values reported in article PMC4256047, “Structural and Functional Profiling of Environmental Ligands for Estrogen Receptors” (Environmental Health Perspectives, 2014).
Each block holds one molecule with its values, some of them ahead of it. Primed or numbered codes have the meaning given here. Where no end group is shown, it is not given here. fluorescein″ = fluorescein label on the peptide (N-terminal, fluorescein-labeled peptide)

Legend:
ER = test system: ER; design: method as in Wilson et al. 2004; conditions: ref Wilson et al. 2004; cited from earlier work
wild-type ERβ LBD = wild-type ERβ LBD (Homo sapiens, UniProt Q92731); test: fluorescence anisotropy, SRC-1 NR2 peptide recruitment by ERβ LBD; conditions: class from Kd of SRC-1 peptide for ERβ LBD
human ERα = target: T1, human ERα (Homo sapiens, UniProt P03372); test: HGELN-ERα luciferase transactivation assay; conditions: for agonistic potential in words, FL-ERα: HGELN-ERα, full-length receptor; for relative activation of the two ER subtypes: HGELN-ERα versus HGELN-ERβ, full-length receptors
T1 sequence (P03372 1-595): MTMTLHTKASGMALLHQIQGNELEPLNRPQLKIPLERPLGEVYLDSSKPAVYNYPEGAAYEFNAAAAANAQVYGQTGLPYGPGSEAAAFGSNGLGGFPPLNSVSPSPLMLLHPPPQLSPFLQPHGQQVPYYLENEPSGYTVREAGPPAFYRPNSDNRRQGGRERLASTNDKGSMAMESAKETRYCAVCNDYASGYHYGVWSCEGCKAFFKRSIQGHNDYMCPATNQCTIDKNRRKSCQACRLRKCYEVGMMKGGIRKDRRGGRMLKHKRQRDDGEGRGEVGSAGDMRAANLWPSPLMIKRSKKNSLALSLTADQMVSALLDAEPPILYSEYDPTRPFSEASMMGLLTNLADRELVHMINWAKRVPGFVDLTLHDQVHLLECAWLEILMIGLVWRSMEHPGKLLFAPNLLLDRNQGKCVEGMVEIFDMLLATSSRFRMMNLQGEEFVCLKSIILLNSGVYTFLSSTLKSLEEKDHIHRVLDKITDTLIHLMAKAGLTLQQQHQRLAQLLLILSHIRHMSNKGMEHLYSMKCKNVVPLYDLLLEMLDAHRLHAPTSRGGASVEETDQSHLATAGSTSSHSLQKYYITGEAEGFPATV

wild-type ERα LBD = target: T2, wild-type ERα LBD (Homo sapiens, UniProt P03372); test: fluorescence anisotropy, SRC-1 NR2 peptide recruitment by ERα LBD; conditions: class from Kd of SRC-1 peptide for ERα LBD
T2 sequence (P03372 302-552): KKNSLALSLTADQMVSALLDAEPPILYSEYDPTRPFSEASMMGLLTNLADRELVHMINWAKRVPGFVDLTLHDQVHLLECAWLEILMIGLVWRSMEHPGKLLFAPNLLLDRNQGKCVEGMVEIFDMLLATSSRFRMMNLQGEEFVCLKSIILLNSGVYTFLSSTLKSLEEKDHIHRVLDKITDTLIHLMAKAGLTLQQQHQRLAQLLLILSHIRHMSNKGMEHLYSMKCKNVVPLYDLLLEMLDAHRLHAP

human ERβ = human ERβ (Homo sapiens, UniProt Q92731); test: HGELN-ERβ luciferase transactivation assay; conditions: full-length receptor
ΔAB-ERβ = test: HGELN-ΔAB-ERβ luciferase transactivation assay
ΔAB-ERα = test: HGELN-ΔAB-ERα luciferase transactivation assay
[1] = target: T3, wt-ERα LBD (wild-type estrogen receptor α ligand-binding domain, amino acids 302–552) (human, UniProt P03372 302-552); test: fluorescence polarisation; fluorescence anisotropy as a1, with 4-OP at 2 molar equivalents of the highest protein concentration; conditions: both partners purified
T3 construct: also called wild-type ERα LBD; apo-ERα
T3 sequence (looked up): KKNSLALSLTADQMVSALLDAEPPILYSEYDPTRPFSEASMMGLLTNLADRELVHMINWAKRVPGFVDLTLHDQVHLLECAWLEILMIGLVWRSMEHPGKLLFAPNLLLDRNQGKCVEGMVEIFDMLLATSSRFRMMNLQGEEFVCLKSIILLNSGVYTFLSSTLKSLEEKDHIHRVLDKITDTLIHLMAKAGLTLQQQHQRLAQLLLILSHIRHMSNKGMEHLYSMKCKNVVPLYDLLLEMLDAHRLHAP

[2] = target: T4, wt-ERβ LBD (wild-type estrogen receptor β ligand-binding domain, amino acids 261–502) (human, UniProt Q92731 261-502); test: fluorescence polarisation; fluorescence anisotropy as a1, with BP-2 at 2 molar equivalents of the highest protein concentration; conditions: both partners purified
T4 construct: also called wild-type ERβ LBD; apo-ERβ

[3] = target: T3, wt-ERα LBD (wild-type estrogen receptor …); test: fluorescence polarisation; fluorescence anisotropy as a1, with α-ZA at 2 molar equivalents of the highest protein concentration; conditions: both partners purified
[4] = target: T4, wt-ERβ LBD (wild-type estrogen receptor …); test: as above; conditions: both partners purified

Sequence of wild-type ERβ LBD (Q92731 261-502): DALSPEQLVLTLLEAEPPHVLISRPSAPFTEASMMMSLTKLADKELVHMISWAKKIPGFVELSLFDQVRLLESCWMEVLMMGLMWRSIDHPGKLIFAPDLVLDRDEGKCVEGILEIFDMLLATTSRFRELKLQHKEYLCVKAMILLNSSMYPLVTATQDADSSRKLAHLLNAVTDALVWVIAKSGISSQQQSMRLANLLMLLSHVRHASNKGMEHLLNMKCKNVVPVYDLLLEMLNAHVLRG
T4 sequence (Q92731 261-502): as above
Sequence of human ERβ (Q92731 whole entry): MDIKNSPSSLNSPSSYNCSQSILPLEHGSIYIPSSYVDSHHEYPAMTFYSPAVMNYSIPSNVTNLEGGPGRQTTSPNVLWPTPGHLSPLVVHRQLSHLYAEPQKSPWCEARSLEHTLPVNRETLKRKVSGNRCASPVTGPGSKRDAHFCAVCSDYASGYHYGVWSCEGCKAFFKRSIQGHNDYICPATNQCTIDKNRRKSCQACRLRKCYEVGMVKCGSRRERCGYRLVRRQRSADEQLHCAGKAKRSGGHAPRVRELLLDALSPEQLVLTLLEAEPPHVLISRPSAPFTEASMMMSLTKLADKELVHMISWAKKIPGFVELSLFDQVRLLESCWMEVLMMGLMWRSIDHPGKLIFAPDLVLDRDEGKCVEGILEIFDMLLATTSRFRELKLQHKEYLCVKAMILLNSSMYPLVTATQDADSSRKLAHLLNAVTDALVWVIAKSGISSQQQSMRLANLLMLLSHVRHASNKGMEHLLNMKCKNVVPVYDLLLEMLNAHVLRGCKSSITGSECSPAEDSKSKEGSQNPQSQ

Molecule: Oc1ccc(C(c2ccc(O)cc2)C(Cl)(Cl)Cl)cc1 [HPTE, 2,2-bis(p-hydroxyphenyl)-1,1,1-trichloroethane]
- ER activity reported in other studies (ER): agonistic properties

Molecule: CC(C)(C)CC(C)(C)c1ccc(O)cc1 [4-OP, 4-tert-octylphenol]
- ligand class by SRC-1 peptide recruitment, ERβ (wild-type ERβ LBD): partial agonists (partial agonists (1 μM ≤ Kd ≤ values for apo-ERα or -ERβ))

Molecule: C[C@H]1CCC[C@H](O)CCCCCc2cc(O)cc(O)c2C(=O)O1 [α-ZA, α-zearalanol]
- agonistic potential in words, FL-ERα (human ERα): efficiently activated
- ligand class by SRC-1 peptide recruitment, ERα (wild-type ERα LBD): strong agonists (strong agonists (Kd ≤ 1 μM))

Molecule: CC(C)(c1ccc(O)cc1)c1ccc(O)cc1 [BPA, bisphenol A]
- ligand class by SRC-1 peptide recruitment, ERα (wild-type ERα LBD): partial agonists (partial agonists (1 μM ≤ Kd ≤ values for apo-ERα or -ERβ))
- ligand class by SRC-1 peptide recruitment, ERβ (wild-type ERβ LBD): partial agonists (partial agonists (1 μM ≤ Kd ≤ values for apo-ERα or -ERβ))

Molecule: ClC(Cl)=C(c1ccc(Cl)cc1)c1ccc(Cl)cc1 [DDE, dichlorodiphenyldichloroethylene]
- ligand class by SRC-1 peptide recruitment, ERα (wild-type ERα LBD): partial agonists (partial agonists (1 μM ≤ Kd ≤ values for apo-ERα or -ERβ))

Molecule: CCCCOC(=O)c1ccc(O)cc1 [Butylparaben, butylparaben]
- ligand class by SRC-1 peptide recruitment, ERβ (wild-type ERβ LBD): partial agonists (partial agonists (1 μM ≤ Kd ≤ values for apo-ERα or -ERβ))

Molecule: Oc1ccc(C(=C(Cl)Cl)c2ccc(O)cc2)cc1 [BPC, bisphenol C]
- relative activation of the two ER subtypes (human ERα): activated ERα more efficiently than ERβ

Molecule: CC(C)(c1cc(Cl)c(O)c(Cl)c1)c1cc(Cl)c(O)c(Cl)c1 [TCBPA, tetrachlorobisphenol A]
- agonistic potential in words, FL-ERβ (human ERβ): ERβ antagonists
- agonistic potential in words, ΔAB-ERβ (ΔAB-ERβ): ERβ antagonists

Molecule: O=C(c1ccc(O)cc1O)c1ccc(O)cc1O [BP-2, benzophenone-2]
- relative activation of the two ER subtypes (human ERα): activated the two ER subtypes equally
- agonistic potential in words, FL-ERα (human ERα): full agonist
- agonistic potential in words, FL-ERβ (human ERβ): full agonist
- agonistic potential in words, ΔAB-ERα (ΔAB-ERα; HGELN-ΔAB-ERα): full agonist
- AF-1 dependence of activity (ΔAB-ERα; full-length versus ΔAB (AF-1 deleted) ERs): fully AF-1–independent activity
- agonistic potential in words, ΔAB-ERβ (ΔAB-ERβ): full agonist
- ligand class by SRC-1 peptide recruitment, ERα (wild-type ERα LBD): strong agonists (strong agonists (Kd ≤ 1 μM))
- ligand class by SRC-1 peptide recruitment, ERβ (wild-type ERβ LBD): strong agonists (strong agonists (Kd ≤ 1 μM))

- Kd [1]: ≥ 1 µM
- Kd [2]: ≤ 1 µM
- Kd [3]: ≤ 1 µM
- Kd [4]: ≥ 1 µM
B1: fluorescein-RHKILHRLLQEGS peptide corresponding to the NR box 2-binding motif of SRC-1 (peptide)
peptide: {fluorescein″}-RHKILHRLLQEGS
notes: also called fluorescein-labeled SRC-1 NR2 peptide; SRC-1 NR2 peptide; source: synthetic peptide, bought: EZbiolab
